The values below come from patent publication US20240424113A1, “CONJUGATES COMPRISING ANTIFUNGALS AND HEAT SHOCK PROTEIN 90 (HSP90) INHIBITORS AND METHODS OF USE THEREOF” (Bright Angel Therapeutics Inc., priority 2021, published 2024).

Molecules are shown by their SMILES. Converted amounts (≈) assume the structure as drawn.

Assay [1] deals with Hsp90 Nuclear Binding Domain (NBD) (Candida albicans (strain SC5314 / ATCC MYA-2876) (Yeast), UniProt P46598). Description: Surface Plasmon Resonance (SPR) binding, C. albicans Hsp90 NBD. Particulars: biotinylated Hsp90 NBD on streptavidin chip, 25° C., 1:1 binding model. As to the method:
(§1) Surface Plasmon Resonance (SPR) Experiments. SPR experiments were performed on a Biacore S200 instrument at 25° C. Biotinylated Hsp90 Nuclear Binding Domain (NBD) was diluted to 40 μg/mL and immobilized on a streptavidin chip (Sensor Chip SA, GE Healthcare) at a density of 2000-2500 response units (RU) on the biosensor surface.
(§2) Recombinant Hsp90 NBDs were expressed and purified as previously described (Whitesell et al., Nat Commun 10, 402 (2019)) with the following modification; Hsp90 NBD expression constructs were modified to encode a C-terminal AviTag for site-specific on-column biotinylation with a BirA biotin-ligase kit (Avidity LLC; BirA-500). Stock protein solutions in 50% glycerol were stored at −20° C. until dilution into relevant buffers. Binding experiments were done in HBS-P (0.01 M HEPES, pH 7.4, 0.15 M NaCl, 0.005% v/v surfactant P20, GE Healthcare) with 2% DMSO at flow rate of 40 μL/min. Test compounds (dilution series) were injected with a 60 s association time and 600 s dissociation time. Resulting sensorgrams were analyzed with a fit to a 1:1 binding model, using BIA evaluation software.

Assay [2] has as its target Hsp90 Nuclear Binding Domain (NBD) (Aspergillus fumigatus, UniProt P40292). Description: Surface Plasmon Resonance (SPR) binding, A. fumigatus Hsp90 NBD. Particulars: biotinylated Hsp90 NBD on streptavidin chip, 25° C., 1:1 binding model; NB undefined. As to the method:
as §1, §2

For a further assay, the system named is CaCl2. Kind of assay: Antifungal sensitivity testing (broth microdilution MIC). It is filed as cell-based. Conditions: Table 4; 96-well broth microdilution. As to the method: Antifungal Sensitivity Testing. Minimum inhibitory concentrations (MICs) were determined in flat bottom, 96-well plate format using a modified broth microdilution protocol as previously described (Singh et al., PLoS Pathog. 5, e1000532 (2009); LaFayette et al., PLoS Pathog. 6, 79-80 (2010)). Compounds were formulated in dimethyl sulfoxide (DMSO, Sigma-Aldrich Co.); fluconazole was dissolved in sterile ddH2O. Each compound was tested in duplicate in at least two independent experiments. To test for fungicidal activity, cultures from MIC plates were spotted on YPD agar plates using a spotter (Frogger, V&P Scientific, Inc.). Plates were photographed after 24 h of incubation at 30° C.

Sequence of Hsp90 Nuclear Binding Domain (NBD) (Candida albicans (strain SC5314 / ATCC MYA-2876) (Yeast), UniProt P46598) (P46598 1-218 limits assumed): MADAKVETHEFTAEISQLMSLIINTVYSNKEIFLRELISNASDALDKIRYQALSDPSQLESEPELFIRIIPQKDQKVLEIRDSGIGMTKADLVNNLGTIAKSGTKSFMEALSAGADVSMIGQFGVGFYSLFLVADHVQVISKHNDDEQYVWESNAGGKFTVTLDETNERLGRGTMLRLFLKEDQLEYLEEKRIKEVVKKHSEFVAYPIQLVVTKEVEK
Sequence of Hsp90 Nuclear Binding Domain (NBD) (Aspergillus fumigatus, UniProt P40292) (P40292 whole entry, looked up, the tested form may be a part): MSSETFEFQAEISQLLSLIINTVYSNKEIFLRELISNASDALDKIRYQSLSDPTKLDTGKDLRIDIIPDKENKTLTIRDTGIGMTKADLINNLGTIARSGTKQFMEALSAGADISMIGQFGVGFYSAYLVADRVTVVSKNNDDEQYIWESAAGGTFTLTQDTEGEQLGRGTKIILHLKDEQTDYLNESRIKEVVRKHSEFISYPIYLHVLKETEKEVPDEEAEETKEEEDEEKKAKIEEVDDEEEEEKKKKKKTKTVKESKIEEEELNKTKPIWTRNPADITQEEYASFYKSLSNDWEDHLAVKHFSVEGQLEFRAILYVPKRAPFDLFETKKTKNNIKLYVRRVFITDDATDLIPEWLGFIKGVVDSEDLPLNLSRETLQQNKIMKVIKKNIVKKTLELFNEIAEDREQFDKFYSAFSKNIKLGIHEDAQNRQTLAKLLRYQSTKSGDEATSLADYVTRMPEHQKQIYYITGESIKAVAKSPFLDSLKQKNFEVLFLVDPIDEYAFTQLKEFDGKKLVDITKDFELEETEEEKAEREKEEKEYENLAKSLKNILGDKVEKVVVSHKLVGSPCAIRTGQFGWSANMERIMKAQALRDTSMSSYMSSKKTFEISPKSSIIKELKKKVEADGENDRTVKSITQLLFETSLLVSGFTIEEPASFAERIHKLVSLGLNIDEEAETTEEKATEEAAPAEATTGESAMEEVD

For the compound `Nc1nc2sc(-c3cn(C4CCN(CC(O)(Cn5cncn5)c5ccc(F)cc5F)CC4)nn3)cc2n(-c2ccc3c(c2)N(c2ccccc2)CCO3)c1=O` (stereo not drawn) [Compound I-51, 3-amino-6-(1-(1-(2-(2,4-difluorophenyl)-2-hydroxy-3-(1H-1,2,4-triazol-1-yl)propyl)piperidin-4-yl)-1H-1,2,3-triazol-4-yl)-1-(4-phenyl-3,4-dihydro-2H-benzo[b][1,4]oxazin-6-yl)thieno[2,3-b]pyrazin-2(1H)-one], the Kd (usually the equilibrium constant for the complex coming apart) in assay [1] amounted to 3 nM; in assay [2], 14.6 nM. The MIC50 (in general, an inhibitory concentration at the 50% level, which refers to growth in some studies and to a panel of isolates in others) against CaCl2 was 1 µM (≈ 0.764 µg/mL).
The like results for `Nc1nc2sc(-c3nc(C(=O)NCC(O)(Cn4cncn4)c4ccc(F)cc4F)no3)cc2n(-c2ccc3c(c2)N(c2ccccc2)CCO3)c1=O` (stereo not drawn) [Compound I-57, 5-(3-amino-2-oxo-1-(4-phenyl-3,4-dihydro-2H-benzo[b][1,4]oxazin-6-yl)-1,2-dihydrothieno[2,3-b]pyrazin-6-yl)-N-(2-(2,4-difluorophenyl)-2-hydroxy-3-(1H-1,2,4-triazol-1-yl)propyl)-1,2,4-oxadiazole-3-carboxamide] were, in that order, 32.1 nM, 46.9 nM and 20 µM (≈ 14.5 µg/mL).
On the same counts, the results for `Nc1nc2sc(CNC3CCN(C[C@](O)(Cn4cncn4)c4ccc(F)cc4F)CC3)cc2n(-c2ccc3c(c2)N(c2ccccc2)CCO3)c1=O` [Compound I-63, (S)-3-amino-6-(((1-(2-(2,4-difluorophenyl)-2-hydroxy-3-(1H-1,2,4-triazol-1-yl)propyl)piperidin-4-yl)amino)methyl)-1-(4-phenyl-3,4-dihydro-2H-benzo[b][1,4]oxazin-6-yl)thieno[2,3-b]pyrazin-2(1H)-one] are 377 nM, 591 nM and 9 µM (≈ 6.53 µg/mL).
On the same counts, the results for `Nc1nc2sc(CNC3CN(CC(O)(Cn4cncn4)c4ccc(F)cc4F)C3)cc2n(-c2ccc3c(c2)N(c2ccccc2)CCO3)c1=O` (stereo not drawn) [Compound I-66, 3-amino-6-(((1-(2-(2,4-difluorophenyl)-2-hydroxy-3-(1H-1,2,4-triazol-1-yl)propyl)azetidin-3-yl)amino)methyl)-1-(4-phenyl-3,4-dihydro-2H-benzo[b][1,4]oxazin-6-yl)thieno[2,3-b]pyrazin-2(1H)-one] are 1060 nM, 1380 nM and 22.5 µM (≈ 15.7 µg/mL).
As to `Nc1nc2sc(CN3CCN(CC(O)(Cn4cncn4)c4ccc(F)cc4F)CC3)cc2n(-c2ccc3c(c2)N(c2ccccc2)CCO3)c1=O` (stereo not drawn) [Compound I-68, 3-amino-6-((4-(2-(2,4-difluorophenyl)-2-hydroxy-3-(1H-1,2,4-triazol-1-yl)propyl)piperazin-1-yl)methyl)-1-(4-phenyl-3,4-dihydro-2H-benzo[b][1,4]oxazin-6-yl)thieno[2,3-b]pyrazin-2(1H)-one], the Kd in assay [1] stood at 417 nM; in assay [2] it was 545 nM. This compound also came in with an MIC50 against CaCl2 of 0.75 µM (≈ 0.534 µg/mL).
On the same counts, the results for `Nc1nc2sc(CN[C@H]3CCN(CC(O)(Cn4cncn4)c4ccc(F)cc4F)C3)cc2n(-c2ccc3c(c2)N(c2ccccc2)CCO3)c1=O` (stereo partly drawn) [Compound I-71, 3-amino-6-((((3S)-1-(2-(2,4-difluorophenyl)-2-hydroxy-3-(1H-1,2,4-triazol-1-yl)propyl)pyrrolidin-3-yl)amino)methyl)-1-(4-phenyl-3,4-dihydro-2H-benzo[b][1,4]oxazin-6-yl)thieno[2,3-b]pyrazin-2(1H)-one] are 865 nM, 1260 nM and 6.25 µM (≈ 4.45 µg/mL).
Turning to `Nc1nc2sc(CNCCC(O)(Cn3cncn3)c3ccc(F)cc3F)cc2n(-c2ccc3c(c2)N(c2ccccc2)CCO3)c1=O` (stereo not drawn) [Compound I-74, 3-amino-6-(((3-(2,4-difluorophenyl)-3-hydroxy-4-(1H-1,2,4-triazol-1-yl)butyl)amino)methyl)-1-(4-phenyl-3,4-dihydro-2H-benzo[b][1,4]oxazin-6-yl)thieno[2,3-b]pyrazin-2(1H)-one], the Kd in assay [1] stood at 429 nM; in assay [2] it was 853 nM. Besides, the MIC50 with CaCl2 was determined as 12 µM (≈ 7.88 µg/mL).
On the same counts, the results for `Nc1nc2sc(CN[C@@H]3CCCN(CC(O)(Cn4cncn4)c4ccc(F)cc4F)C3)cc2n(-c2ccc3c(c2)N(c2ccccc2)CCO3)c1=O` (stereo partly drawn) [Compound I-75, 3-amino-6-((((3R)-1-(2-(2,4-difluorophenyl)-2-hydroxy-3-(1H-1,2,4-triazol-1-yl)propyl)piperidin-3-yl)amino)methyl)-1-(4-phenyl-3,4-dihydro-2H-benzo[b][1,4]oxazin-6-yl)thieno[2,3-b]pyrazin-2(1H)-one] are 233 nM, 340 nM and 4 µM (≈ 2.9 µg/mL).
The like results for `Nc1nc2sc(CN[C@@H]3CCN(CC(O)(Cn4cncn4)c4ccc(F)cc4F)C3)cc2n(-c2ccc3c(c2)N(c2ccccc2)CCO3)c1=O` (stereo partly drawn) [Compound I-77, 3-amino-6-((((3R)-1-(2-(2,4-difluorophenyl)-2-hydroxy-3-(1H-1,2,4-triazol-1-yl)propyl)pyrrolidin-3-yl)amino)methyl)-1-(4-phenyl-3,4-dihydro-2H-benzo[b][1,4]oxazin-6-yl)thieno[2,3-b]pyrazin-2(1H)-one] were, in that order, 187 nM, 373 nM and 12.5 µM (≈ 8.9 µg/mL).
On the same counts, the results for `Nc1nc2sc(CN[C@H]3CCCN(CC(O)(Cn4cncn4)c4ccc(F)cc4F)C3)cc2n(-c2ccc3c(c2)N(c2ccccc2)CCO3)c1=O` (stereo partly drawn) [Compound I-79, 3-amino-6-((((3S)-1-(2-(2,4-difluorophenyl)-2-hydroxy-3-(1H-1,2,4-triazol-1-yl)propyl)piperidin-3-yl)amino)methyl)-1-(4-phenyl-3,4-dihydro-2H-benzo[b][1,4]oxazin-6-yl)thieno[2,3-b]pyrazin-2(1H)-one] are 877 nM, 1020 nM and 3 µM (≈ 2.18 µg/mL).
For `Nc1nc2sc(CN[C@H]3[C@@H]4CN(CC(O)(Cn5cncn5)c5ccc(F)cc5F)C[C@@H]43)cc2n(-c2ccc3c(c2)N(c2ccccc2)CCO3)c1=O` (stereo partly drawn) [Compound I-81, 3-amino-6-((((1R,5S,6s)-3-(2-(2,4-difluorophenyl)-2-hydroxy-3-(1H-1,2,4-triazol-1-yl)propyl)-3-azabicyclo[3.1.0]hexan-6-yl)amino)methyl)-1-(4-phenyl-3,4-dihydro-2H-benzo[b][1,4]oxazin-6-yl)thieno[2,3-b]pyrazin-2(1H)-one], the Kd amounted to 825 nM in assay [1] and 1040 nM in assay [2]. Moreover, the MIC50 against CaCl2 was determined as 2.5 µM (≈ 1.81 µg/mL).
The like results for `Nc1nc2sc(CNCC(O)(Cn3cncn3)c3ccc(F)cc3F)cc2n(-c2ccc3c(c2)N(c2ccccc2)CCO3)c1=O` (stereo not drawn) [Compound I-82, 3-amino-6-(((2-(2,4-difluorophenyl)-2-hydroxy-3-(1H-1,2,4-triazol-1-yl)propyl)amino)methyl)-1-(4-phenyl-3,4-dihydro-2H-benzo[b][1,4]oxazin-6-yl)thieno[2,3-b]pyrazin-2(1H)-one] were, in that order, 826 nM, 1350 nM and 1.6 µM (≈ 1.03 µg/mL).
The like results for `CC1(NCc2cc3c(nc(N)c(=O)n3-c3ccc4c(c3)N(c3ccccc3)CCO4)s2)CCN(CC(O)(Cn2cncn2)c2ccc(F)cc2F)CC1` (stereo not drawn) [Compound I-117, 3-amino-6-(((1-(2-(2,4-difluorophenyl)-2-hydroxy-3-(1H-1,2,4-triazol-1-yl)propyl)-4-methylpiperidin-4-yl)amino)methyl)-1-(4-phenyl-3,4-dihydro-2H-benzo[b][1,4]oxazin-6-yl)thieno[2,3-b]pyrazin-2(1H)-one] were, in that order, 461 nM, 298 nM and 3 µM (≈ 2.22 µg/mL).
